We go through 1 compound from patent US9255257B2, “PmST1 mutants for chemoenzymatic synthesis of sialyl lewis X compounds” (THE REGENTS OF THE UNIVERSITY OF CALIFORNIA, priority 2011, dated 2016).

Experiment [1] concerns the target Pasteurella multocida PmST1 double mutant E271F/R313Y of SEQ ID NO: 13 (E247F/R289Y of Δ24PmST1, SEQ ID NO: 11) (Pasteurella multocida, UniProt Q15KI8, E271F/R313Y). As to the kind of experiment: α2-3-sialidase activity, Neu5Acα2-3LacβMU as substrate. The experiment is classed as biochemical. As to conditions: apparent, MES pH 5.5, 37° C., 20 min. The method, then:
(§1) Site-directed mutagenesis. Site-directed mutagenesis was carried out using the QuikChange multi-site-directed mutagenesis kit from Stratagene according to the manufacturer's protocol. The primers used were 5′-[…] -3′ (SEQ ID NO:32) for E271F and 5′-[…]-3′ (SEQ ID NO:33) for R313Y. The sites of mutations are underlined.
(§2) Protein Expression and Purification. The plasmids containing the mutant genes were transformed into E. coli BL21 (DE3). The E. coli cells were cultured in LB-rich media (10 g L^−1 tryptone, 5 g L^−1 yeast extract, and 10 g L^−1 NaCl) supplemented with ampicillin (100 μg mL^−1). Overexpression of the mutant proteins was achieved by adding 0.1 mM of isopropyl-1-thio-β-D-galactopyranoside (IPTG) to the E. coli culture when its OD600 nm reached 0.8. The incubation of the induced culture was performed at 37° C. for 3 h with vigorous shaking at 250 rpm in a C25KC incubator shaker (New Brunswick Scientific, Edison, N.J.).
(§3) His6 (SEQ ID NO:34) tagged mutant proteins were purified from the cell lysate. To obtain the cell lysate, the cell pellet harvested by centrifugation at 4000 rpm for 2 h was resuspended in 20 mL (for cells obtained from one liter culture) of lysis buffer (pH 8.0, 100 mM Tris-HCl containing 0.1% Triton X-100). To lyse the cells, lysozyme (50 μg mL^−1) and DNaseI (3 μg mL^−1) were then added to the resuspended cells followed by shaking at 37° C. for 60 min. The cell lysate was obtained as the supernatant after centrifugation at 11,000 rpm for 20 min. […]
(§4) All the sialidase and α2-3-sialyltransferase assays were performed in an HPLC system. […] After necessary dilutions were performed to adjust the concentrations of the fluorescent-labeled compounds, the samples were then kept on ice until aliquots of 8 μL were injected and analyzed by a Shimadzu LC-6AD system equipped with a membrane on-line degasser, a temperature control unit, and a fluorescence detector (Shimadzu RF-10AXL). […] The fluorescent compounds LacβMU and Neu5Acα2-3LacβMU were detected by excitation at 325 nm and emission at 372 nm.

The target in experiment [2] is Pasteurella multocida PmST1 mutant E271F of SEQ ID NO: 13 (E247F of Δ24PmST1, SEQ ID NO: 7) (Pasteurella multocida, UniProt Q15KI8, E271F). The description is as above. The experiment is classed as biochemical. The following applies: apparent, MES pH 5.5, 37° C., 1 min. The method, then: as §1, §2, §3, §4
The target in experiment [3] is Pasteurella multocida PmST1 mutant R313Y of SEQ ID NO: 13 (R289Y of Δ24PmST1, SEQ ID NO: 9) (Pasteurella multocida, UniProt Q15KI8, R313Y). The description is as above. The experiment is classed as biochemical. The following applies: apparent, MES pH 5.5, 37° C., 25 min. The method, then: as §1, §2, §3, §4
Experiment [4] deals with Pasteurella multocida PmST1 mutant M144D of SEQ ID NO: 13 (M120D of Δ24PmST1, SEQ ID NO: 3) (Pasteurella multocida, UniProt Q15KI8, M144D). The description is as above. The experiment is classed as biochemical. As to conditions: apparent, MES pH 5.5, 37° C., 60 min. The method, then:
(§5) Site-directed mutagenesis, expression and purification of PmST1 mutants. Site-directed mutagenesis was performed using the QuikChange multi-site-directed mutagenesis kit from Stratagene according to the manufacturer's protocol. The primers used were 5′-[…]-3′ (SEQ ID NO:35) for M144D; 5′-[…]a[…] -3′ (SEQ ID NO:36) for M144H; 5′-[…]-3′ (SEQ ID NO:37) for A35D; and 5′-[…]-3′ (SEQ ID NO:38) for A35H. The expression and purification of the mutants were performed as previously described for the WT PmST1 .
(§6) Kinetics of the α2-3-sialidase activity of PmST1 mutants. The reactions were performed in duplicate in a total volume of 10 μL at 37° C. for 60 min (M144D) or 15 min (M144H) in MES buffer (100 mM, pH 5.5) containing Neu5Acα2-3LacβMU (0.4, 1, 2, 4, 10, 20, 40 and 60 mM) and an enzyme (M144H, 1.36 mg mL^−1 or M144D, 1.05 mg mL^−1). Sample treatment after the reaction and analysis were carried out by HPLC similar to that described above for the α2-3-sialyltransferase assays.

The target in experiment [5] is Pasteurella multocida PmST1 mutant M144H of SEQ ID NO: 13 (M120H of Δ24PmST1, SEQ ID NO: 5) (Pasteurella multocida, UniProt Q15KI8, M144H). The experiment is described as above. The experiment is classed as biochemical. The following applies: apparent, MES pH 5.5, 37° C., 15 min. The method, then: as §5, §6
Experiment [6] has as its target Pasteurella multocida α2-3-sialyltransferase 1 (PmST1), wild type (WT), SEQ ID NO: 13 (Pasteurella multocida, UniProt Q15KI8). The following applies: apparent, α2-3-sialidase; cited from earlier work.
The target of experiment [7] is Pasteurella multocida PmST1 mutant D141A (Pasteurella multocida, UniProt Q15KI8, D141A). Kind of experiment: α2-3-sialidase activity, Neu5Acα2-3LacβMU as substrate. As to conditions: apparent, MES pH 5.5, 37° C., 60 min. The arrangement: previously obtained mutant (Ni et al. 2006). The experiment is classed as biochemical. The method, then:
(§7) Kinetic Assays. […] The apparent kinetic parameters were obtained by fitting the experimental data (the average values of duplicate assay results) into the Michaelis-Menten equation using Grafit 5.0.
(§8) All the sialidase and α2-3-sialyltransferase assays were performed in an HPLC system. Reactions were stopped by adding 10 μL of ethanol. After necessary dilutions were performed to adjust the concentrations of the fluorescent-labeled compounds, the samples were then kept on ice until aliquots of 8 μL were injected and analyzed by a Shimadzu LC-6AD system equipped with a membrane on-line degasser, a temperature control unit, and a fluorescence detector (Shimadzu RF-10AXL). A reverse-phase Premier C18 column (250×4.6 mm i.d., 5 μm particle size, Shimadzu) protected with a C18 guard column cartridge was used. The mobile phase was 25% acetonitrile. The fluorescent compounds LacβMU and Neu5Acα2-3LacβMU were detected by excitation at 325 nm and emission at 372 nm.

The target in experiment [8] is Pasteurella multocida PmST1 mutant H311A (Pasteurella multocida, UniProt Q15KI8, H311A). Described as above. The experiment is classed as biochemical. The following applies: result in words. The arrangement: previously obtained mutant (Ni et al. 2006). The method, then: as §7, §8

As to `CC(=O)N[C@H]1[C@H]([C@H](O)[C@H](O)CO)O[C@@](O[C@H]2[C@@H](O)[C@@H](CO)O[C@@H](O[C@H]3[C@H](O)[C@@H](O)[C@H](Oc4ccc5c(C)cc(=O)oc5c4)O[C@@H]3CO)[C@@H]2O)(C(=O)O)C[C@@H]1O` [Neu5Acα2-3LacβMU], the kcat (in general, the number of substrate molecules converted per active site and unit of time at saturation) in experiment [1] is 0.83 ± 0.08 s⁻¹; in experiment [2], 0.92 ± 0.04 s⁻¹; in experiment [3], 0.18 ± 0.01 s⁻¹; in experiment [4], “(3.5 ± 0.1) × 10^−2 s^−1”; in experiment [5], “(2.7 ± 0.2) × 10^−2 s^−1”; in experiment [7], “(1.9 ± 0.1) × 10^−2 s^−1”. Besides, the Km (in general, the concentration of substrate that gives half-maximal velocity) in experiment [6] is 24 mM. Further, the “kinetics of the α2-3-sialidase activity” value in experiment [8] was “too low to obtain the kinetic data”.
